Patent publication US20140148446A1, “COMPOUNDS THAT ENABLE ALTERNATIVE MITOCHONDRIAL ELECTRON TRANSFER” (University of North Texas Health Science Center, priority 2010, published 2014)

What was measured:
[1] = tested on: rotenone induced rat model of PD; test: Rotenone model of PD: striatal monoamines, brain complex I-III activity and total ROS; assay type: in vivo
Description: All mitochondrial activity assays were performed according to previous publications with minimal modifications for complex I (Lenaz et al., 2004), complex I-III, complex II, complex III, and II-III (Trounce et al., 1996). All assays used a similar master mix that contained potassium phosphate pH 7.4 (50 mM), BSA 2.5mg/ml, MgCl2 5 mM, KCN (2 mM), and various inhibitors or substrates, including rotenone (6 μM), antimycin A (2 μM), NADH (150 μM), CoQ1 (60 μM), cyt c (50 μM), succinate (8 mM), and DBH2 (100 μM). Complex I activity was monitored by adding NADH to the mix with or without rotenone/antimycin A. The final data were normalized to blank values at time zero. The reaction was monitored in a kinetic spectrophotometer at 340 nm. Complex I activity was measured in arbitrary units and normalized to control levels for statistical analysis. Isolated mitochondria equivalent to 40-200 μg mitochondrial protein was used for each assay, except for assays with inhibitors, when larger amount of mitochondria (3 to 5 folds) were used to ensure that inhibition was distinguishable. Final data were normalized to control levels. For complex I-III activity, the reaction was initiated with the addition of NADH, cyt c was used as final substrate and its reduction was monitored at 550 nm. For assay of complex II-III activity, succinate was added instead of NADH, and the electron transfer to cyt c was performed according to previous publications (Atamna et al., 2008). To test whether the electrons from the reduced form of MB (MBH2) can be transferred to cyt c in mitochondrial lysate, we added 10 μM 2,7-dichlorofluorescin (DCFH, Invitrogen, Carlsbad, Calif.) to the reaction system. Free radicals convert non-fluorescent DCFH to highly fluorescent DCF (Ex, 488 nm, and Em, 530 nm). In the presence of cyt c, which accepts electrons from MBH2, conversion of DCFH to DCF is decreased.
Rats were assigned to three groups: control animals received vehicle infusion and daily saline injection (Veh/Sal N=6-8); a second group received rotenone infusion at the dose of 5 mg/kg/day and daily saline injection (ROT/Saline N=8-11); and the third group received rotenone infusion (5 mg/kg/day) and MB injection at the dose of 500 μg/kg/day (ROT/MB N=8-10). Vehicle or rotenone was infused via Alzet osmotic mini pumps that were filled with vehicle or rotenone dissolved in vehicle (equal volumes of dimethylsulfoxide and polyethylene glycol). Pumps containing vehicle or rotenone were sterilized with UV irradiation and implanted subcutaneously on the back. Intraperitoneal injections were administered with normal saline or MB, 500 μg/kg/day, diluted in normal saline to 500 μl of final volume. Rats were sacrificed on day 8 at four hours after last dose of MB or saline treatment.
After completion of neurological assessments and behavioral tests, rats were killed on the 8th day of rotenone infusion under anesthesia induced by xylazine (20 mg/kg, i.p.) and ketamine (100 mg/kg, i.p.). All osmotic pumps were checked for the residual liquid to ensure proper drug delivery. One hemisphere was fixed by 4% paraformaldehyde in phosphate buffer for 48 hr until processing for sectioning. The other hemisphere was snap-frozen in liquid nitrogen, and kept at −80° C. until extraction for biochemical analysis. Striatum dissected from a separate set of animals were used for analysis of monoamines by HPLC. […]

[2] = tested on: transient MCA occlusion in rats; test: Transient focal cerebral ischemia (MCA occlusion); assay type: in vivo; details: rat, single dosage of MB at 500 μg/kg, 24 hr after reperfusion
Description: Transient focal cerebral ischemia was induced by intraluminal filament MCA occlusion (Liu et al., 2005). Briefly, the left internal carotid artery (ICA) was exposed, and a 3-0 monofilament nylon suture was introduced into the ICA lumen through a puncture and gently advanced to the distal ICA until proper resistance was felt. After 1 hr, the suture was withdrawn for reperfusion. At 24 hr after reperfusion, the animals were sacrificed and the brain harvested. The brains were sectioned at 3, 5, 7, 9, 11, 13 and 15 mm posterior to the olfactory bulb. Each slice was incubated 30 min in 2% 2,3,5-triphenyltetrazolium chloride (TTC) in physiological saline, then fixed in 10% formalin. The stained slices were digitally photographed for measurement of ischemic lesion volume (Image-Pro Plus 4.1).

CN(C)c1ccc2nc3ccc(=[N+](C)C)cc-3sc2c1 [methylene blue]
Decrease of complex I-III activity in brain extracts ([1]; MB 500 μg/kg/day i.p.): prevented
Overall ROS in brain extracts ([1]; MB 500 μg/kg/day i.p.): attenuated in the ROT/MB group to basal level
Striatum L-DOPAC depletion ([1]; MB 500 μg/kg/day i.p.): almost completely rescued
Striatum dopamine depletion ([1]; MB 500 μg/kg/day i.p.): almost completely rescued
Striatum 5-HT levels ([1]; all three groups): no significant differences
Ischemic lesion volume [2]: significantly reduced
